Data on one molecule can be found in publication PMC6269910 (Molecules, 2013).

In series [1] the test system is acetic acid-induced abdominal constriction. Description: Acetic acid-induced writhing (Koster) test. The series is classed as in vivo, mice. The conditions noted are these: 100 mg/kg oral. Summed up: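 Test samples in 0.5% CMC/water given orally to mice; vehicle controls. One hour later, 3% acetic acid (0.1 mL/10 g) i.p.; writhes counted for 10 min starting 5 min post-injection. Activity expressed as % change from writhing controls; ASA 200 mg/kg as reference.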

For series [2], the system named is lipid peroxidation in stomach. Description: Lipid peroxidation in stomach (TBARS). The series is classed as in vivo, mice. The conditions noted are these: 100 mg/kg, 8 h after analgesic test.

Take `CCNC(=S)NS(=O)(=O)c1ccc(-n2nc(C(F)(F)F)cc2-c2ccc(C)cc2)cc1` [Compound 1a, N-(Ethylcarbamothioyl)-4-[5-(4-methylphenyl)-3-(trifluoromethyl)-1H-pyrazol-1-yl] benzenesulfonamide]: the “Writhing test (% inh.)” value in series [1] turned out to be 67.8%. Besides, the “Writhing test (Mean ± SEM)” value in series [1] (writhings counted 10 min from 5 min after acetic acid) turned out to be 5.6 ± 0.9. Also, the Lipid peroxidation in series [2] amounted to 387.7 ± 12.8 nmol TBARS/g wet weight.
